ChEMBL document CHEMBL1773033, “Cyclic lactam hybrid α-MSH/Agouti-related protein (AGRP) analogues with nanomolar range binding affinities at the human melanocortin receptors” (Bioorg Med Chem Lett, 2011)
Positions of bridges follow the written chain, without caps; N, C: chain ends. Non-standard residues stand in square brackets, D forms with d. Residues, ends and D or L forms follow the SMILES beside them.

Experiments:
[1] = biological target: T1, Melanocyte-stimulating hormone receptor (Homo sapiens, UniProt Q01726); experiment: Displacement of [125I]-NDP-alpha-MSH from human MC1R expressed in HEK293 cells at 10 uM after 40 mins by Wallac 1470 gamma counting relative to Ac-Nle-c[Asp-His-D-Phe-Arg-Trp-Lys]-NH2; assay type: cell-based
Target sequence in this assay (Q01726 whole entry, looked up): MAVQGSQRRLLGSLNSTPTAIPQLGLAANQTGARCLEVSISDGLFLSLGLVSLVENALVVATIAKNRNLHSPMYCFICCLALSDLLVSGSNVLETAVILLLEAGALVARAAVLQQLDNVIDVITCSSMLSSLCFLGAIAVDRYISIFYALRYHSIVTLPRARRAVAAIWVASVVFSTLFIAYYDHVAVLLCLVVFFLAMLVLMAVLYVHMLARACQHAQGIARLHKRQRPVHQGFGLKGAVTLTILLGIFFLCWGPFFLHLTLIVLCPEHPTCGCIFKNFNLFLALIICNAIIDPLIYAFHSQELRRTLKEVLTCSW

Melanocortin receptor 3 [2] = biological target: T2, Melanocortin receptor 3 (Homo sapiens, UniProt P41968); experiment: Displacement of [125I]-NDP-alpha-MSH from human MC3R expressed in HEK293 cells at 10 uM after 40 mins by Wallac 1470 gamma counting relative to Ac-Nle-c[Asp-His-D-Phe-Arg-Trp-Lys]-NH2; assay type: cell-based
T2 sequence (P41968 whole entry): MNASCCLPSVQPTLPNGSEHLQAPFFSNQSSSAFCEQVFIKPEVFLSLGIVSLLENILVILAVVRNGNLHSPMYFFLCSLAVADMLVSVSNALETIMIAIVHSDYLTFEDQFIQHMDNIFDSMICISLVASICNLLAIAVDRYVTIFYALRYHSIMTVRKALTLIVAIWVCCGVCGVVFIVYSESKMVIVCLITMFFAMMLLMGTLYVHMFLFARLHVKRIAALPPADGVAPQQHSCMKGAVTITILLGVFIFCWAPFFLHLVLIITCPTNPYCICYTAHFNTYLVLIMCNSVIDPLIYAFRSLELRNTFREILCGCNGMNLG

Melanocortin receptor 4 [3] = biological target: T3, Melanocortin receptor 4 (Homo sapiens, UniProt P32245); experiment: Displacement of [125I]-NDP-alpha-MSH from human MC4R expressed in HEK293 cells at 10 uM after 40 mins by Wallac 1470 gamma counting relative to Ac-Nle-c[Asp-His-D-Phe-Arg-Trp-Lys]-NH2; assay type: cell-based
T3 sequence (P32245 whole entry): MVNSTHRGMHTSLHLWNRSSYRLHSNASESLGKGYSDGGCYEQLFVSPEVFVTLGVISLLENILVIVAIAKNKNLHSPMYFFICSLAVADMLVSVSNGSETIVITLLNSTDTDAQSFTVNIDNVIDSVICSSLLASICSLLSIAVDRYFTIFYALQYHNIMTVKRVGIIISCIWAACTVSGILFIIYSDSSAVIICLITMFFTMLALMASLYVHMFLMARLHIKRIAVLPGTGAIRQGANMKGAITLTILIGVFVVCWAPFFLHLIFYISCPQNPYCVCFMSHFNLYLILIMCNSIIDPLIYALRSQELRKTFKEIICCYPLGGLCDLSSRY

Melanocortin receptor 5 [4] = biological target: T4, Melanocortin receptor 5 (Homo sapiens, UniProt P33032); experiment: Displacement of [125I]-NDP-alpha-MSH from human MC5R expressed in HEK293 cells at 10 uM after 40 mins by Wallac 1470 gamma counting relative to Ac-Nle-c[Asp-His-D-Phe-Arg-Trp-Lys]-NH2; assay type: cell-based
T4 sequence (P33032 whole entry): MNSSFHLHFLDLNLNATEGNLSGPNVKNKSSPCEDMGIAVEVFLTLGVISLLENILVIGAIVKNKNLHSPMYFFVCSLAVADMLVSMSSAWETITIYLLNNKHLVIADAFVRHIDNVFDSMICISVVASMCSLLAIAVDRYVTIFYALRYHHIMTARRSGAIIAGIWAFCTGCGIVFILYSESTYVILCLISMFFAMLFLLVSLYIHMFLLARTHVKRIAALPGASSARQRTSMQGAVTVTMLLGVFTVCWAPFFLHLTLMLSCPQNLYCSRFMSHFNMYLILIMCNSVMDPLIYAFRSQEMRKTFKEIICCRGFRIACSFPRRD

[5] = biological target: T1, Melanocyte-stimulating hormone receptor; experiment: Agonist activity at human MC1R expressed in HEK293 cells assessed as increase in intracellular cAMP accumulation; assay type: functional, cell-based
Target sequence in this assay (Q01726 whole entry): as the sequence (Q01726 whole entry, looked up) above

Melanocortin receptor 3 [6] = biological target: T2, Melanocortin receptor 3; experiment: Agonist activity at human MC3R expressed in HEK293 cells assessed as intracellular cAMP accumulation; assay type: functional, cell-based
Melanocortin receptor 4 [7] = biological target: T3, Melanocortin receptor 4; experiment: Agonist activity at human MC4R expressed in HEK293 cells assessed as intracellular cAMP accumulation; assay type: functional, cell-based
Melanocortin receptor 5 [8] = biological target: T4, Melanocortin receptor 5; experiment: Agonist activity at human MC5R expressed in HEK293 cells assessed as intracellular cAMP accumulation; assay type: functional, cell-based
[9] = biological target: T1, Melanocyte-stimulating hormone receptor; experiment: Agonist activity at human MC1R expressed in HEK293 cells assessed as increase in intracellular cAMP level at 10 uM after 3 mins by luminescence counter relative to Ac-Nle-c[Asp-His-D-Phe-Arg-Trp-Lys]-NH2; assay type: functional, cell-based
Target sequence in this assay (Q01726 whole entry, looked up): as above

Melanocortin receptor 3 [10] = biological target: T2, Melanocortin receptor 3; experiment: Agonist activity at human MC3R expressed in HEK293 cells assessed as increase in intracellular cAMP level at 10 uM after 3 mins by luminescence counter relative to Ac-Nle-c[Asp-His-D-Phe-Arg-Trp-Lys]-NH2; assay type: functional, cell-based
Melanocortin receptor 4 [11] = biological target: T3, Melanocortin receptor 4; experiment: Agonist activity at human MC4R expressed in HEK293 cells assessed as increase in intracellular cAMP level at 10 uM after 3 mins by luminescence counter relative to Ac-Nle-c[Asp-His-D-Phe-Arg-Trp-Lys]-NH2; assay type: functional, cell-based
Melanocortin receptor 5 [12] = biological target: T4, Melanocortin receptor 5; experiment: Agonist activity at human MC5R expressed in HEK293 cells assessed as increase in intracellular cAMP level at 10 uM after 3 mins by luminescence counter relative to Ac-Nle-c[Asp-His-D-Phe-Arg-Trp-Lys]-NH2; assay type: functional, cell-based
[13] = biological target: T1, Melanocyte-stimulating hormone receptor; experiment: Displacement of [125I]-NDP-alpha-MSH from human MC1R expressed in HEK293 cells after 40 mins by Wallac 1470 gamma counting; assay type: cell-based
Target sequence in this assay (Q01726 whole entry): as the sequence (Q01726 whole entry, looked up) above

Melanocortin receptor 3 [14] = biological target: T2, Melanocortin receptor 3; experiment: Displacement of [125I]-NDP-alpha-MSH from human MC3R expressed in HEK293 cells after 40 mins by Wallac 1470 gamma counting; assay type: cell-based
Melanocortin receptor 4 [15] = biological target: T3, Melanocortin receptor 4; experiment: Displacement of [125I]-NDP-alpha-MSH from human MC4R expressed in HEK293 cells after 40 mins by Wallac 1470 gamma counting; assay type: cell-based
Melanocortin receptor 5 [16] = biological target: T4, Melanocortin receptor 5; experiment: Displacement of [125I]-NDP-alpha-MSH from human MC5R expressed in HEK293 cells after 40 mins by Wallac 1470 gamma counting; assay type: cell-based

| Structure (SMILES) | Activity [1] [%] | Activity (Melanocortin receptor 3 [2]) [%] | Activity (Melanocortin receptor 4 [3]) [%] | Activity (Melanocortin receptor 5 [4]) [%] | EC50 [5] | EC50 (Melanocortin receptor 3 [6]) | EC50 (Melanocortin receptor 4 [7]) | EC50 (Melanocortin receptor 5 [8]) | Activity [9] [%] | Activity (Melanocortin receptor 3 [10]) [%] | Activity (Melanocortin receptor 4 [11]) [%] | Activity (Melanocortin receptor 5 [12]) [%] | IC50 [13] | IC50 (Melanocortin receptor 3 [14]) | IC50 (Melanocortin receptor 4 [15]) | IC50 (Melanocortin receptor 5 [16]) |
| --- | --- | --- | --- | --- | --- | --- | --- | --- | --- | --- | --- | --- | --- | --- | --- | --- |
| CC(=O)N[C@H]1CC(=O)NCCCC[C@@H](C(N)=O)NC(=O)[C@@H](CCCNC(=N)N)NC(=O)[C@H](Cc2ccccc2)NC(=O)[C@H](Cc2c[nH]c3ccccc23)NC(=O)[C@H](CCCNC(=N)N)NC1=O (Ac-DRWF[dR]K-NH2; lactam 1-6) | 0 | 0 | 0 | 0 | Not Active | Not Active | Not Active | Not Active | 0 | 0 | 0 | 0 | Not Active | Not Active | Not Active | Not Active |
| CC(=O)N[C@H]1CC(=O)NCCCC[C@@H](C(N)=O)NC(=O)[C@@H](CC(N)=O)NC(=O)[C@H](Cc2ccccc2)NC(=O)[C@H](Cc2c[nH]c3ccccc23)NC(=O)[C@H](CCCNC(=N)N)NC1=O (Ac-DRWF[dN]K-NH2; lactam 1-6) | 0 | 0 | 0 | 0 | Not Active | Not Active | Not Active | Not Active | 0 | 0 | 0 | 0 | Not Active | Not Active | Not Active | Not Active |
| CC(=O)N[C@H]1CC(=O)NCCCC[C@@H](C(N)=O)NC(=O)[C@@H](CCC(N)=O)NC(=O)[C@H](Cc2ccccc2)NC(=O)[C@H](Cc2c[nH]c3ccccc23)NC(=O)[C@H](CCCNC(=N)N)NC1=O (Ac-DRWF[dQ]K-NH2; lactam 1-6) | 0 | 0 | 0 | 0 | Not Active | Not Active | Not Active | Not Active | 0 | 0 | 0 | 0 | Not Active | Not Active | Not Active | Not Active |
